Consider 8 molecules from patent US10023519B2, “Cyclobutane containing carboxylic acid GPR120 modulators” (BRISTOL-MYERS SQUIBB COMPANY, priority 2014, dated 2018).

As a reminder, the EC50 is the concentration at which the effect is half-maximal. The low end stands for a more potent agent, the high end for a less potent agent.

The target in the first test is human GPR120 (Homo sapiens (Human), UniProt Q5NUL3). The experiment in a line: GPR120 pERK AlphaScreen SureFire Assay (human). The class given is cell-based. As to conditions: CHO cells stably transfected with short form of human GPR120.
Chain of human GPR120 (Q5NUL3 whole entry): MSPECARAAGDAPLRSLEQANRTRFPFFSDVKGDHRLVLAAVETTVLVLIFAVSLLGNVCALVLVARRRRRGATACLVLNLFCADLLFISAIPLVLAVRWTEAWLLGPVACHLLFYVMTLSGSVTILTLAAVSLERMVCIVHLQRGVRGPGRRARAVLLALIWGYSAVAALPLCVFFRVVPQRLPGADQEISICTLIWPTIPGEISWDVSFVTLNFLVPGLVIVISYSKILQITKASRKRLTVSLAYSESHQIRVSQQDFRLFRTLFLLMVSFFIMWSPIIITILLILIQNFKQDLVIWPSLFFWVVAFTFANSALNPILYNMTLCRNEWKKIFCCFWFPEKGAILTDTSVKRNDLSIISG
Description: GPR120 activity was monitored by measuring phosphorylation of ERK (pERK), since G protein receptors are known to activate the ERK signaling cascade either directly and/or through recruitment of arrestin that serves as a scaffold for downstream signaling events.
GPR120 pERK AlphaScreen SureFire Assay
The human and mouse GPR120-mediated intracellular phosphorylated ERK assays were established using CHOA12 cells stably transfected with the short form of human or mouse GPR120 receptor. […] Cells were cryo preserved at a concentration of 2×10^7 cells/mL, in 90% Charcoal/Dextran FBS and 10% DMSO, and frozen in liquid nitrogen at a low passage number.
The flasks were placed in a tissue culture incubator overnight (37° C., 5% CO2). […] The next day, cells were serum starved in 30 μL of F-12 media without any serum or antibiotics for 2 hours at 37° C.
Cells were then stimulated with 50 nL of compound dilutions using ECHO liquid handler for 7 minutes at 37° C.
(§1) The lysis buffer was diluted 5-fold with water before use. […] The SureFire assay reagent mix was prepared by mixing 60 parts Reaction Buffer, 10 parts Activation Buffer, 1 part Donor Beads, 1 part Acceptor Beads (Perkin Elmer Cat. #TGRES10K). 3.5 μL/well of this reagent mix was manually added to the proxiplate with a multichannel pipettor. Plates were spun down at 1000 rpm for 2 minutes, followed by light-protected incubation at room temperature for 2 hours. The plates were read on the Alpha-technology compatible Envision multilabel plate reader using AlphaScreen protocol according to manufacturer's specifications. The agonist effect of compounds was expressed as 100× (average sample−average blank)/(average total−average blank) where sample is the luminescence activity in the presence of test compound, blank is equal to the luminescence activity in the presence of DMSO control and the total is signal induced by 50 μM linolenic acid as reference compound. Activation data for the test compound over a range of concentrations was plotted as percentage activation of the test compound (100%=maximum response). After correcting for background, EC50 values were determined.
The human and mouse GPR120-mediated intracellular phosphorylated ERK assays were also established using CHO-K1 cells stably transfected with the short form of human or mouse GPR120 receptor. […] Cells were cryo preserved at a concentration of 3×10^6 cells/mL, in 70% F-12, 20% Charcoal/Dextran FBS and 10% DMSO, and frozen in liquid nitrogen at a low passage number.
The flasks were placed in a tissue culture incubator overnight (37° C., 5% CO2).
Cells were then stimulated with 40 nL of compound dilutions using ECHO liquid handler for 7 minutes at 37° C.
as §1, with “compound.” for “compound. Activation data for the test compound over a range of concentrations was plotted as percentage activation of the test compound (100%=maximum response). After correcting for background, EC50 values were determined.”
Activation data for the test compound over a range of concentrations was plotted as percentage activation of the test compound (100%=maximum response). After correcting for background, EC50 values were determined.
Consider `O=C(O)CO[C@H]1C[C@@H](c2ccc(-c3cc(Oc4ccccc4)ccc3F)cc2)C1` [Example 1, Cis-2-(-3-(2′-fluoro-5′-phenoxy-[1,1′-biphenyl]-4-yl)cyclobutoxy)acetic acid], for which the EC50 stood at 170 nM. Same read-out and setting: for `C[C@]1(CCCOCCC(=O)O)C[C@@H](c2cccc(Oc3ccccc3)c2)C1` [Example 62, 3-(3-(Cis-1-methyl-3-(3-phenoxyphenyl)cyclobutyl)propoxy)propanoic acid] the value was 570 nM; for `O=C(O)[C@H]1C[C@H](Oc2ccc(-c3cc(Oc4ccccc4)ccc3F)cc2)C1` [Example 64, Trans-3-((2′-fluoro-5′-phenoxy-[1,1′-biphenyl]-4-yl)oxy)cyclobutanecarboxylic acid], 440 nM; for `O=C(O)[C@H]1C[C@@H](Oc2ccc(-c3cc(Oc4ccccc4)ccc3F)cc2)C1` [Example 65, Cis-3-((2′-fluoro-5′-phenoxy-[1,1′-biphenyl]-4-yl)oxy)cyclobutanecarboxylic acid], 2270 nM. Same read-out and setting: for `O=C(O)C[C@H]1C[C@H](Oc2ccc(-c3cc(Oc4ccccc4)ccc3F)cc2)C1` [Example 66, Trans-2-(3-((2′-fluoro-5′-phenoxy-[1,1′-biphenyl]-4-yl)oxy)cyclobutyl)acetic acid] the value was 110 nM. On the same count and under the same terms, for `O=C(O)C[C@H]1C[C@@H](Oc2ccc(-c3cc(Oc4ccccc4)ccc3F)cc2)C1` [Example 67, Cis-2-(3-((2′-fluoro-5′-phenoxy-[1,1′-biphenyl]-4-yl)oxy)cyclobutyl)acetic acid] the value was 330 nM. As for `COC1(c2cccc(Oc3ccccc3)c2)CC(CCCOCC(=O)O)C1` (stereo not drawn) [Example 68, 2-(3-(3-Methoxy-3-(3-phenoxyphenyl)cyclobutyl)propoxy)acetic acid], the EC50 stood at 2800 nM. Still for that read-out and setting: for “Cis-2-(3-(2′,3′-difluoro- 5′-(3- fluorophenoxy)-[1,1′- biphenyl]-4-yl)cyclobutoxy) acetic acid [Example 37]” the value was 590 nM.

A further test concerns C57BL/6 mice. The experiment in a line: Acute Oral Glucose Tolerance Test. The class given is in vivo, mouse. The settings on record: dosed at 30 mg/kg orally 60 min before glucose challenge (2 g/kg), AUC t=0-120 min compared to vehicle. As for the experimental part:
In Vivo GPR120 Assays 1) Acute Oral Glucose Tolerance Test
C57BL/6 mice were housed individually and fed a standard rodent chow diet. At approximately 11 weeks age, after a 5 h fast, these mice were orally treated with vehicle or test compounds 60 min before a glucose challenge (2 g/kg). Blood glucose levels were determined from tail bleeds taken at −60, 0, 15, 30, 60 and 120 min after the glucose challenge. […] This AUC for compound treatment is compared to vehicle treatment.
In the case of `O=C(O)CO[C@H]1C[C@@H](c2ccc(-c3cc(Oc4ccccc4)ccc3F)cc2)C1` [Example 1, Cis-2-(-3-(2′-fluoro-5′-phenoxy-[1,1′-biphenyl]-4-yl)cyclobutoxy)acetic acid], the “reduced glucose AUC” value was 42%.
